This is an account of results in patent US12453779B2, “Chemoselective thiol-conjugation with alkene or alkyne-phosphonothiolates and -phosphonates” (FORSCHUNGSVERBUND BERLIN E.V., priority 2018, dated 2025).

In this experiment the test system is CD30-overexpressing cell line Karpas 299. Nature of the experiment: Cell based antiproliferation (resazurin) assay, Karpas 299. The settings on record: Karpas 299, 96 hours of treatment, Brentuximab-NA3 DAR=3.15. (In general: Alamar Blue is a resazurin reagent that responds to reducing activity.)

With Brentuximab: CD30-addressing antibody, the “growth inhibition (cell viability)” value is reported as “does not show growth inhibition”.
